Where two headings read alike, the source gives them in different places.
Columns and labels:
α-amylase [1] = target: T1, α-amylase (Sus scrofa, UniProt P00690); assay: α-Amylase inhibitory activity assay (Gal-G2-α-CNP substrate); format: biochemical; conditions: 37 °C, pH 6.8
T1 sequence (P00690 16-511): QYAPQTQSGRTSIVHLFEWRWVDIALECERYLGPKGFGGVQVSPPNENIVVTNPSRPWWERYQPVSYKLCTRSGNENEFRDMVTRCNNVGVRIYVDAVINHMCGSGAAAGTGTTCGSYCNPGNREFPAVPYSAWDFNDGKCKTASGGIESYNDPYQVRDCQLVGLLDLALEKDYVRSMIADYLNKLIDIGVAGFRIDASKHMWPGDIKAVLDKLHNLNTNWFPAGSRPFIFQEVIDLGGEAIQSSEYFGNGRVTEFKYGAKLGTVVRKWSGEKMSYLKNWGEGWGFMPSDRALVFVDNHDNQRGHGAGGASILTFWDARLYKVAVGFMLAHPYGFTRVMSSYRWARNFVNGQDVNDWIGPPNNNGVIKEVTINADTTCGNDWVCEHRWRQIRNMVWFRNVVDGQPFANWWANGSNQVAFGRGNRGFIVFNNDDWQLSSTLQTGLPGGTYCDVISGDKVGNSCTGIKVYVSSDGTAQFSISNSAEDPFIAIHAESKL
Description: The inhibitory activity detection process was slightly modified, with reference as the base method from the literature. […] After thorough mixing, the samples were pre-incubated at 37 °C for 10 min. Subsequently, 100 μL of 5 mmol/L Gal-G2-α-CNP substrate was added to each sample. Following a 3 min reaction period, the absorbance of the solutions at 405 nm was measured using a microplate reader. The inhibition rate (%) was calculated based on the absorbance readings according to Formula (1).(1) inhibition rate%=(1−(A1−A2)/(A3−A4))×100
In the formula, A1 represents the sample group; A2 represents the sample control group (where the enzyme was replaced with phosphate buffer); A3 represents the blank control group; and A4 represents the reagent blank control group (containing blank sample solution and phosphate buffer).
Using the enzyme inhibition rate as the y-axis and the inhibitor concentration as the x-axis, the IC50 value was calculated through linear regression fitting with GraphPad Prism software (5.0).

α-amylase [2] = target: T1, α-amylase; assay: In vitro stability study (temperature, pH), inhibition rate against α-amylase; format: physicochemical; conditions: water bath 30–100 °C, 20 min
Description: (§1) Samples of a certain mass concentration were subjected to a water bath at different temperatures (30, 40, 50, 60, 70, 80, 90, 100 °C) for 20 min and treated under different pH conditions (2.0, 3.0, 4.0, 5.0, 6.0, 7.0, 8.0, 9.0, and 10.0) for 20 min to determine the effect of temperature and pH on the stability of the two enzymes.

α-glucosidase = α-glucosidase (Saccharomyces cerevisiae, UniProt P53341); assay: In vitro stability study (temperature, pH), inhibition rate against α-glucosidase; format: physicochemical; conditions: water bath 30–100 °C, 20 min
Description: as §1

MTT cytotoxicity assay = format: cell-based, human; conditions: human, HepG2 cells; for viability at 24 h: read-out: cell viability
Description: The cytotoxicity of six porphyrin compounds against human hepatocellular carcinoma HepG2 cells was evaluated using the MTT assay. HepG2 cells were seeded into 96-well plates at a density of 5000 cells per well and cultured for 24 h at 37 °C in a 5% CO2 incubator. Then, 100 µL of sample solutions at various concentrations (50, 100, and 200 µg/mL) was added to the experimental wells, with blank control wells and solvent control wells also included. The cells were further incubated for 24 h. After incubation, 10 µL of MTT solution (5 mg/mL) was added to each well, and the plates were incubated for another 4 h. Subsequently, 100 µL of Formazan solubilization solution was added to each well, followed by gentle mixing. The plates were returned to the incubator and maintained until complete dissolution of Formazan crystals was observed under a microscope. The absorbance at 570 nm was measured using a microplate reader (Meigu Molecular Instrument Company, Shanghai, China), and the survival rate of HepG2 cells was calculated.(12) Cell viability=As-Ab/Ac-Ab×100%
In the formula, As represents the absorbance of the sample well, Ac denotes the absorbance of the blank control well (without the drug), and Ab refers to the absorbance of the solvent control well (devoid of both cells and the drug).

α-glucosidase, sequence (P53341 whole entry): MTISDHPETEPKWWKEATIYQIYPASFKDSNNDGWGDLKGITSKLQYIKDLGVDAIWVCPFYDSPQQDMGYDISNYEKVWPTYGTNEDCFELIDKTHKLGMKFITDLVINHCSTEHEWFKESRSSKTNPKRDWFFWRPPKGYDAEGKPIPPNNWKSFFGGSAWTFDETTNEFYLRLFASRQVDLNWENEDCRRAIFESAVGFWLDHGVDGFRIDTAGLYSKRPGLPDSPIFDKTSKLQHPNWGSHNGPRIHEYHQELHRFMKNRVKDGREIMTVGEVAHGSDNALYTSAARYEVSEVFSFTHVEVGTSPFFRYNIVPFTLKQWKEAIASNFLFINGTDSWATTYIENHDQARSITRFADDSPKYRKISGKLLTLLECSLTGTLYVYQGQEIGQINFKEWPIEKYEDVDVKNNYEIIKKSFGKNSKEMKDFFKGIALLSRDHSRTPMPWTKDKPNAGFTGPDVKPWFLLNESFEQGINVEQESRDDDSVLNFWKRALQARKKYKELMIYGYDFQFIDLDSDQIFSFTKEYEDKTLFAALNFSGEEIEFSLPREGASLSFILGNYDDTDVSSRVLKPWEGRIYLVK

Compound | IC50 α-amylase (α-amylase [1]) | thermal stability: inhibition rate against α-amylase (α-amylase [2]) | thermal stability: inhibition rate against α-glucosidase (α-glucosidase) | viability at 24 h (MTT cytotoxicity assay; HepG2, 50–200 μg/mL) | viability at 24 h, 200 µg/mL (MTT cytotoxicity assay; HepG2, 200 μg/mL, read-out: cell viability (survival rate)) | viability at 24 h (MTT cytotoxicity assay; HepG2, 50–100 μg/mL)
iron (III) meso-tetra (4-carboxyphenyl) porphyrin chloride [Fe–TCPP] | 95.75 ± 0.62 µg/mL | small fluctuations | remained relatively stable | – | – | –
Nc1ccc(-c2c3nc(c(-c4ccc(N)cc4)c4ccc([nH]4)c(-c4ccc(N)cc4)c4nc(c(-c5ccc(N)cc5)c5ccc2[nH]5)C=C4)C=C3)cc1 [TAPP] | – | – | – | > 97% | – | –
O=C(O)c1ccc(-c2c3nc(c(-c4ccc(C(=O)O)cc4)c4ccc([nH]4)c(-c4ccc(C(=O)O)cc4)c4nc(c(-c5ccc(C(=O)O)cc5)c5ccc2[nH]5)C=C4)C=C3)cc1 [TCPP] | – | small fluctuations | remained relatively stable | – | 30.3 ± 3.45% | > 80%
O=C(O)c1ccc(-c2c3nc(c(-c4ccc(C(=O)O)cc4)c4ccc([nH]4)c(-c4ccc(C(=O)O)cc4)c4nc(c(-c5ccc(C(=O)O)cc5)c5ccc2[nH]5)C=C4)C=C3)cc1.[Ni+2] [Ni–TCPP, nickel (II) meso-tetra (4-carboxyphenyl) porphine] | 156.26 ± 0.48 µg/mL | small fluctuations | remained relatively stable | – | – | –
O=C(O)c1ccc(-c2c3nc(c(-c4ccc(C(=O)O)cc4)c4ccc([nH]4)c(-c4ccc(C(=O)O)cc4)c4nc(c(-c5ccc(C(=O)O)cc5)c5ccc2[nH]5)C=C4)C=C3)cc1.[Cu+2] [Cu–TCPP, copper (II) meso-tetra (4-carboxyphenyl)porphyrin] | 245.04 ± 0.26 µg/mL | small fluctuations | remained relatively stable | – | – | –
Oc1ccc(-c2c3nc(c(-c4ccc(O)cc4)c4ccc([nH]4)c(-c4ccc(O)cc4)c4nc(c(-c5ccc(O)cc5)c5ccc2[nH]5)C=C4)C=C3)cc1 [THPP] | – | small fluctuations | remained relatively stable | – | – | –

Source: PMC12467033, “Exploring the Inhibitory Potential of Six Porphyrin Compounds Against α-Amylase and α-Glucosidase Linked to Diabetes” (Biomolecules, 2025)
